Measurements taken from ChEMBL document CHEMBL1201862, “PubChem BioAssay data set” (2004).
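Interpolation was linear, between the two tested concentrations surrounding the appropriate level; five concentrations were tested over 48 hours in 96-well plates. GI50 marks 50% less growth.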 The source made the active and inactive calls. Rule as the data show it: active = GI50 up to about 1.1 µM and inactive = higher.

Tests used:
Test in all cases: growth of human tumour cells (NCI), 48 h
MCF7 = test system: MCF7
T47D = test system: T47D
MDA-MB-435 = test system: MDA-MB-435
OVCAR-8 = test system: OVCAR-8
EKVX = test system: EKVX
CAKI-1 = test system: CAKI-1
HCT-116 = test system: HCT-116
U-251 = test system: U-251
BT-549 = test system: BT-549
UO-31 = test system: UO-31
OVCAR-4 = test system: OVCAR-4
OVCAR-3 = test system: OVCAR-3
MDA-N = test system: MDA-N
SW-620 = test system: SW-620
PC-3 = test system: PC-3
OVCAR-5 = test system: OVCAR-5
SF-539 = test system: SF-539
SK-MEL-28 = test system: SK-MEL-28
NCI/ADR-RES = test system: NCI/ADR-RES
K562 = test system: K562
SF-295 = test system: SF-295
HL-60 = test system: HL-60
SR = test system: SR
A549 = test system: A549
SK-MEL-5 = test system: SK-MEL-5
RPMI-8226 = test system: RPMI-8226
SK-MEL-2 = test system: SK-MEL-2
HOP-62 = test system: HOP-62
KM12 = test system: KM12
IGROV-1 = test system: IGROV-1
NCI-H460 = test system: NCI-H460
UACC-62 = test system: UACC-62
SNB-19 = test system: SNB-19
NCI-H522 = test system: NCI-H522
Hs-578T = test system: Hs-578T
NCI-H23 = test system: NCI-H23
DU-145 = test system: DU-145
CCRF-CEM = test system: CCRF-CEM
COLO 205 = test system: COLO 205
MOLT-4 = test system: MOLT-4
UACC-257 = test system: UACC-257
LOX IMVI = test system: LOX IMVI
Malme-3M = test system: Malme-3M
ACHN = test system: ACHN
SF-268 = test system: SF-268
HCC 2998 = test system: HCC 2998
M14 = test system: M14
HT-29 = test system: HT-29
786-0 = test system: 786-0
HCT-15 = test system: HCT-15
SK-OV-3 = test system: SK-OV-3
TK-10 = test system: TK-10
RXF 393 = test system: RXF 393
NCI-H226 = test system: NCI-H226
SN12C = test system: SN12C
HOP-92 = test system: HOP-92
A498 = test system: A498
SNB-75 = test system: SNB-75

## CN(C)C(=O)Oc1ccc(C(=S)Nc2ccccc2)cc1Br
MCF7
  GI50: 25.8 µM (inactive)
T47D
  GI50: 25 µM (inactive)
MDA-MB-435
  GI50: 19.5 µM (inactive)
OVCAR-8
  GI50: 17.6 µM (inactive)
EKVX
  GI50: 32.5 µM (inactive)
CAKI-1
  GI50: 63.7 µM (inactive)
HCT-116
  GI50: 34 µM (inactive)
U-251
  GI50: 83 µM (inactive)
BT-549
  GI50: 31.3 µM (inactive)
UO-31
  GI50: 33.5 µM (inactive)
OVCAR-4
  GI50: 19.1 µM (inactive)
OVCAR-3
  GI50: 30.1 µM (inactive)
MDA-N
  GI50: 21.7 µM (inactive)
SW-620
  GI50: 37.4 µM (inactive)
PC-3
  GI50: 27.7 µM (inactive)
OVCAR-5
  GI50: 41.9 µM (inactive)
SF-539
  GI50: 72.3 µM (inactive)
SK-MEL-28
  GI50: 31.8 µM (inactive)
NCI/ADR-RES
  GI50: 20.4 µM (inactive)
K562
  GI50: 18.7 µM (inactive)
SF-295
  GI50: 5.11 µM (inactive)
HL-60
  GI50: 16.8 µM (inactive)
SR
  GI50: 16.1 µM (inactive)
A549
  GI50: 33 µM (inactive)
SK-MEL-5
  GI50: 16.9 µM (inactive)
RPMI-8226
  GI50: 22.2 µM (inactive)
SK-MEL-2
  GI50: 21.9 µM (inactive)
HOP-62
  GI50: 45.1 µM (inactive)
KM12
  GI50: 21.7 µM (inactive)
IGROV-1
  GI50: 21 µM (inactive)
NCI-H460
  GI50: 23.1 µM (inactive)
UACC-62
  GI50: 20.3 µM (inactive)
SNB-19
  GI50: 74.6 µM (inactive)
NCI-H522
  GI50: 14.8 µM (inactive)
Hs-578T
  GI50: 8.59 µM (inactive)
NCI-H23
  GI50: 22.9 µM (inactive)
DU-145
  GI50: 54.5 µM (inactive)
CCRF-CEM
  GI50: 21 µM (inactive)
COLO 205
  GI50: 24.2 µM (inactive)
MOLT-4
  GI50: 13.2 µM (inactive)
UACC-257
  GI50: 24.7 µM (inactive)
LOX IMVI
  GI50: 20.9 µM (inactive)
Malme-3M
  GI50: 33.6 µM (inactive)
ACHN
  GI50: 30.5 µM (inactive)
SF-268
  GI50: 6.9 µM (inactive)
HCC 2998
  GI50: 33.1 µM (inactive)
M14
  GI50: 18.6 µM (inactive)
HT-29
  GI50: 21.4 µM (inactive)
786-0
  GI50: 62.8 µM (inactive)
HCT-15
  GI50: 28.9 µM
SK-OV-3
  GI50: > 100 µM (inactive)

## COc1cc(C2c3cc4c(cc3OC(NNC(N)=O)C2C)OCO4)cc(OC)c1OC (stereo not drawn)
MCF7
  GI50: 0.136 µM (active)
T47D
  GI50: > 66.4 µM (inactive)
MDA-MB-435
  GI50: 0.0586 µM (active)
OVCAR-8
  GI50: 0.356 µM (active)
EKVX
  GI50: 2.35 µM (inactive)
CAKI-1
  GI50: 0.634 µM (active)
HCT-116
  GI50: 0.13 µM (active)
U-251
  GI50: 0.126 µM (active)
BT-549
  GI50: 2.03 µM (inactive)
UO-31
  GI50: 1.07 µM (active)
OVCAR-4
  GI50: 11.8 µM (inactive)
OVCAR-3
  GI50: 0.0902 µM (active)
MDA-N
  GI50: 0.0362 µM (active)
SW-620
  GI50: 0.142 µM (active)
PC-3
  GI50: 0.183 µM (active)
TK-10
  GI50: 34.7 µM (inactive)
SF-539
  GI50: 0.0689 µM (active)
RXF 393
  GI50: 0.525 µM (active)
SK-MEL-28
  GI50: 1.12 µM (inactive)
NCI-H226
  GI50: 0.205 µM (active)
NCI/ADR-RES
  GI50: 4.72 µM (inactive)
K562
  GI50: 0.0817 µM (active)
SF-295
  GI50: 0.114 µM (active)
HL-60
  GI50: 0.11 µM (active)
SR
  GI50: 0.0826 µM (active)
A549
  GI50: 0.276 µM (active)
SK-MEL-5
  GI50: 0.123 µM (active)
RPMI-8226
  GI50: 0.167 µM (active)
SK-MEL-2
  GI50: 1.26 µM (inactive)
SN12C
  GI50: 0.404 µM (active)
HOP-62
  GI50: 0.118 µM (active)
KM12
  GI50: 0.107 µM (active)
HOP-92
  GI50: 0.0675 µM (active)
IGROV-1
  GI50: 0.427 µM (active)
NCI-H460
  GI50: 0.179 µM (active)
UACC-62
  GI50: 0.179 µM (active)
SNB-19
  GI50: 0.452 µM (active)
NCI-H522
  GI50: 0.104 µM (active)
Hs-578T
  GI50: 0.125 µM (active)
NCI-H23
  GI50: 0.394 µM (active)
DU-145
  GI50: 0.585 µM (active)
CCRF-CEM
  GI50: 0.109 µM (active)
COLO 205
  GI50: 0.0982 µM (active)
MOLT-4
  GI50: 0.235 µM (active)
UACC-257
  GI50: 0.603 µM (active)
LOX IMVI
  GI50: 0.145 µM (active)
Malme-3M
  GI50: 0.828 µM (active)
ACHN
  GI50: 0.557 µM (active)
SF-268
  GI50: 0.518 µM (active)
HCC 2998
  GI50: 0.373 µM (active)
M14
  GI50: 0.115 µM (active)
A498
  GI50: 0.0233 µM (active)
HT-29
  GI50: 0.145 µM (active)
SNB-75
  GI50: 0.18 µM (active)
786-0
  GI50: 0.185 µM (active)
HCT-15
  GI50: 0.274 µM
SK-OV-3
  GI50: 1.36 µM (inactive)
